ChEMBL document CHEMBL5316298, “Discovery of Amphiphilic Xanthohumol Derivatives as Membrane-Targeting Antimicrobials against Methicillin-Resistant Staphylococcus aureus” (J Med Chem, 2023)
≈ marks a conversion by molar mass, not a printed value. Calls of active or inactive are those of the source. The rule behind the calls is not given here.

Experiments:
[1] = Toxicity in KM mouse infected with methicillin-resistant Staphylococcus aureus 3 assessed as heart damage at 5 mg/kg administered into skin infection site measured after 24 hrs by H and E staining based analysis; format: organism-based; settings: in vivo, topical_or_ocular
[2] = Toxicity in KM mouse infected with methicillin-resistant Staphylococcus aureus 3 assessed as multifocal enlargement of hepatocytes with cytoplasmic foamy swelling at 5 mg/kg administered into skin infection site measured after 24 hrs by H and E staining based analysis; format: organism-based; settings: in vivo, topical_or_ocular
[3] = Toxicity in KM mouse infected with methicillin-resistant Staphylococcus aureus 3 assessed as lung damage at 5 mg/kg administered into skin infection site measured after 24 hrs by H and E staining based analysis; format: organism-based; settings: in vivo, topical_or_ocular
Staphylococcus aureus [4] = assay: Antibacterial activity against methicillin-resistant Staphylococcus aureus 3 infected in KM mouse assessed as reduction in bacterial load at infection site by measuring colony forming units at 5 mg/kg administered into skin infection site measured after 24 hrs; format: functional
Staphylococcus aureus [5] = assay: Antibacterial activity against methicillin-resistant Staphylococcus aureus 3 infected in KM mouse assessed as reduction in abscesses on dorsal surface of skin at 5 mg/kg administered into skin infection site measured after 24 hrs; format: functional, organism-based
[6] = Toxicity in KM mouse infected with methicillin-resistant Staphylococcus aureus 3 assessed as spleen damage at 5 mg/kg administered into skin infection site measured after 24 hrs by H and E staining based analysis; format: organism-based; settings: in vivo, topical_or_ocular
Staphylococcus aureus [7] = assay: Antibacterial activity against methicillin-resistant Staphylococcus aureus 3 infected in KM mouse assessed as reduction in size of abscesses at 5 mg/kg administered into skin infection site measured after 24 hrs; format: functional, organism-based
[8] = Toxicity in KM mouse infected with methicillin-resistant Staphylococcus aureus 3 assessed as histopathological abnormalities in heart at 5 mg/kg administered into skin infection site measured after 24 hrs by H and E staining based analysis; format: organism-based; settings: in vivo, topical_or_ocular
Staphylococcus aureus [9] = assay: Antibacterial activity against methicillin-resistant Staphylococcus aureus 3 infected in KM mouse assessed as reduction in bacterial load at infection site at 5 mg/kg administered into skin infection site measured after 24 hrs relative to control; format: functional; parameters: scale not given: the % may be the effect or the level left
[10] = Toxicity in KM mouse infected with methicillin-resistant Staphylococcus aureus 3 assessed as swelling of renal tubular epithelial cells with granular degeneration at 5 mg/kg administered into skin infection site measured after 24 hrs by H and E staining based analysis; format: organism-based; settings: in vivo, topical_or_ocular
Staphylococcus aureus [11] = assay: Antibacterial activity against methicillin-resistant Staphylococcus aureus 3 infected in KM mouse assessed as reduction in abscesses inside the skin at 5 mg/kg administered into skin infection site measured after 24 hrs; format: functional, organism-based
[12] = Toxicity in KM mouse infected with methicillin-resistant Staphylococcus aureus 3 assessed as kidneys damage at 5 mg/kg administered into skin infection site measured after 24 hrs by H and E staining based analysis; format: organism-based; settings: in vivo, topical_or_ocular
Staphylococcus aureus [13] = assay: Antibacterial activity against methicillin-resistant Staphylococcus aureus 3 infected in KM mouse assessed as reduction in inflammatory cells in subcutaneous tissue at 5 mg/kg administered into skin infection site measured after 24 hrs by H and E staining based analysis; format: functional, organism-based
[14] = Toxicity in KM mouse infected with methicillin-resistant Staphylococcus aureus 3 assessed as histopathological abnormalities in lungs at 5 mg/kg administered into skin infection site measured after 24 hrs by H and E staining based analysis; format: organism-based; settings: in vivo, topical_or_ocular
[15] = Toxicity in KM mouse infected with methicillin-resistant Staphylococcus aureus 3 assessed as liver damage at 5 mg/kg administered into skin infection site measured after 24 hrs by H and E staining based analysis; format: organism-based; settings: in vivo, topical_or_ocular
[16] = Toxicity in KM mouse infected with methicillin-resistant Staphylococcus aureus 3 assessed as histopathological abnormalities in spleen at 5 mg/kg administered into skin infection site measured after 24 hrs by H and E staining based analysis; format: organism-based; settings: in vivo, topical_or_ocular
[17] = Toxicity in KM mouse infected with methicillin-resistant Staphylococcus aureus 3 assessed as vacuolar degeneration in the kidneys at 5 mg/kg administered into skin infection site measured after 24 hrs by H and E staining based analysis; format: organism-based; settings: in vivo, topical_or_ocular
Staphylococcus aureus [18] = assay: Induction of drug resistance in Staphylococcus aureus ATCC 29213 assessed as fold increase in MIC at 0.5 times MIC measured for 20 passages relative to control; format: functional
Staphylococcus aureus [19] = assay: Antibacterial activity against methicillin-resistant Staphylococcus aureus clinical isolate 1 incubated for 16 to 18 hrs by CLSI-based microbroth dilution method; format: functional; settings: time 16-18 hrs
Staphylococcus aureus [20] = assay: Antibacterial activity against methicillin-resistant Staphylococcus aureus clinical isolate 6 incubated for 16 to 18 hrs by CLSI-based microbroth dilution method; format: functional; settings: time 16-18 hrs
Staphylococcus aureus [21] = assay: Antibacterial activity against methicillin-resistant Staphylococcus aureus clinical isolate 9 incubated for 16 to 18 hrs by CLSI-based microbroth dilution method; format: functional; settings: time 16-18 hrs
Staphylococcus aureus [22] = assay: Antibacterial activity against Staphylococcus aureus ATCC 29213 assessed as inhibition of bacterial growth by CLSI based microdilution broth assay; format: functional
Staphylococcus aureus [23] = assay: Antibacterial activity against Staphylococcus aureus ATCC 29213 incubated for 16 to 18 hrs by CLSI-based microbroth dilution method; format: functional; settings: time 16-18 hrs
Staphylococcus aureus [24] = assay: Antibacterial activity against methicillin-resistant Staphylococcus aureus clinical isolate 3 incubated for 16 to 18 hrs by CLSI-based microbroth dilution method; format: functional; settings: time 16-18 hrs
Staphylococcus aureus [25] = assay: Antibacterial activity against Staphylococcus aureus D5 assessed as inhibition of bacterial growth by CLSI based microdilution broth assay; format: functional
Staphylococcus aureus [26] = assay: Antibacterial activity against methicillin-resistant Staphylococcus aureus clinical isolate 7 incubated for 16 to 18 hrs by CLSI-based microbroth dilution method; format: functional; settings: time 16-18 hrs
Staphylococcus aureus [27] = assay: Antibacterial activity against methicillin-resistant Staphylococcus aureus clinical isolate 2 incubated for 16 to 18 hrs by CLSI-based microbroth dilution method; format: functional; settings: time 16-18 hrs
Staphylococcus aureus [28] = assay: Antibacterial activity against Staphylococcus aureus A7 assessed as inhibition of bacterial growth by CLSI based microdilution broth assay; format: functional
Staphylococcus aureus [29] = assay: Antibacterial activity against methicillin-resistant Staphylococcus aureus clinical isolate 8 incubated for 16 to 18 hrs by CLSI-based microbroth dilution method; format: functional; settings: time 16-18 hrs
Staphylococcus aureus [30] = assay: Antibacterial activity against methicillin-resistant Staphylococcus aureus clinical isolate 5 incubated for 16 to 18 hrs by CLSI-based microbroth dilution method; format: functional; settings: time 16-18 hrs
Staphylococcus aureus [31] = assay: Antibacterial activity against methicillin-resistant Staphylococcus aureus clinical isolate 10 incubated for 16 to 18 hrs by CLSI-based microbroth dilution method; format: functional; settings: time 16-18 hrs
Staphylococcus aureus [32] = assay: Antibacterial activity against methicillin-resistant Staphylococcus aureus clinical isolate 4 incubated for 16 to 18 hrs by CLSI-based microbroth dilution method; format: functional; settings: time 16-18 hrs
[33] = Hemolytic activity in sheep erythrocytes incubated for 1 hr by absorbance based analysis; format: toxicity, cell-based, Ovis aries, Erythrocyte
Cell membrane = assay: Induction of membrane depolarization in methicillin-resistant Staphylococcus aureus 3 assessed as increase in fluorescence intensity at 32 ug/ml measured every 2 mins for 20 mins by SYTOX-green dye based fluorescence assay; format: subcellular; settings: dose 32.0 µg/ml

SMILES	MIC (Staphylococcus aureus [19]) [µg/mL]	MIC (Staphylococcus aureus [20]) [µg/mL]	MIC (Staphylococcus aureus [21]) [µg/mL]	MIC (Staphylococcus aureus [23]) [µg/mL]	MIC (Staphylococcus aureus [24]) [µg/mL]	MIC (Staphylococcus aureus [26]) [µg/mL]	MIC (Staphylococcus aureus [27]) [µg/mL]	MIC (Staphylococcus aureus [29]) [µg/mL]	MIC (Staphylococcus aureus [30]) [µg/mL]	MIC (Staphylococcus aureus [31]) [µg/mL]	MIC (Staphylococcus aureus [32]) [µg/mL]	HC50 at 1 h [33] [µg/mL]	also measured
CN[C@H](CC(C)C)C(=O)N[C@H]1C(=O)N[C@@H](CC(N)=O)C(=O)N[C@H]2C(=O)N[C@H]3C(=O)N[C@H](C(=O)N[C@H](C(=O)O)c4cc(O)cc(O)c4-c4cc3ccc4O)[C@H](O)c3ccc(c(Cl)c3)Oc3cc2cc(c3O[C@@H]2O[C@H](CO)[C@@H](O)[C@H](O)[C@H]2O[C@H]2C[C@](C)(N)[C@H](O)[C@H](C)O2)Oc2ccc(cc2Cl)[C@H]1O [VANCOMYCIN]													Activity [1]: Non-Toxic; Activity [2]: Non-Toxic; Activity [3]: Non-Toxic; Activity (Staphylococcus aureus [4]): 2.2 log10CFU/g; Activity (Staphylococcus aureus [5]): inactive; Activity [6]: Non-Toxic; Activity (Staphylococcus aureus [7]): Active; Activity [8]: Non-Toxic; Activity (Staphylococcus aureus [9]): 99.479%; Activity [10]: Non-Toxic; Activity (Staphylococcus aureus [11]): inactive; Activity [12]: Non-Toxic; Activity (Staphylococcus aureus [13]): Active; Activity [14]: Non-Toxic; Activity [15]: Non-Toxic; Activity [16]: Non-Toxic; Activity [17]: Non-Toxic
CCn1cc(C(=O)O)c(=O)c2cc(F)c(N3CCNCC3)cc21													fold change (FC) (Staphylococcus aureus [18]): 128
COc1cc(O)c(CC=C(C)C)c(O)c1C(=O)/C=C/c1ccc(O)cc1 [XANTHOHUMOL]	8 (≈ 22.6 µM)	16 (≈ 45.1 µM)	8 (≈ 22.6 µM)	16 (≈ 45.1 µM)	8 (≈ 22.6 µM)	8 (≈ 22.6 µM)	8 (≈ 22.6 µM)	8 (≈ 22.6 µM)	8 (≈ 22.6 µM)	8 (≈ 22.6 µM)	4 (≈ 11.3 µM)	196	MIC (Staphylococcus aureus [22]): 15.6 µg/mL (≈ 44 µM); MIC (Staphylococcus aureus [25]): 15.6 µg/mL (≈ 44 µM); MIC (Staphylococcus aureus [28]): 15.6 µg/mL (≈ 44 µM)
CC[C@H](C)[C@H](NC(=O)CN)C(=O)NCC(=O)N[C@@H](C)C(=O)N[C@H](C(=O)N[C@@H](CC(C)C)C(=O)N[C@@H](CCCCN)C(=O)N[C@H](C(=O)N[C@@H](CC(C)C)C(=O)N[C@H](C(=O)N[C@H](C(=O)NCC(=O)N[C@@H](CC(C)C)C(=O)N1CCC[C@H]1C(=O)N[C@@H](C)C(=O)N[C@@H](CC(C)C)C(=O)N[C@H](C(=O)N[C@@H](CO)C(=O)N[C@@H](Cc1c[nH]c2ccccc12)C(=O)N[C@H](C(=O)N[C@@H](CCCCN)C(=O)N[C@@H](CCCNC(=N)N)C(=O)N[C@@H](CCCCN)C(=O)N[C@@H](CCCNC(=N)N)C(=O)N[C@@H](CCC(N)=O)C(=O)N[C@@H](CCC(N)=O)C(N)=O)[C@@H](C)CC)[C@@H](C)CC)[C@@H](C)O)[C@@H](C)O)C(C)C)C(C)C													Activity (Cell membrane): Active
CCCCCNC(=O)C[N+](C)(C)CCCOc1ccc(/C=C/C(=O)c2c(OC)cc3c(c2O)C=CC(C)(C)O3)cc1.[Br-]	2	4	4	2	2	4	4	4	2	4	4	169	
COc1cc2c(c(O)c1C(=O)/C=C/c1ccc(OCCCCC[N+](C)(C)CC(=O)N(CC(C)C)CC(C)C)cc1)C=CC(C)(C)O2.[Br-]	4	1	2	2	2	2	1	2	2	2	2	374	
CCCNC(=O)C[N+](C)(C)CCCOc1ccc(/C=C/C(=O)c2c(OC)cc3c(c2O)C=CC(C)(C)O3)cc1.[Br-]	4	2	2	4	2	2	2	2	2	4	4	210	
COc1cc2c(c(O)c1C(=O)/C=C/c1ccc(OCCCC[N+](C)(C)CC(=O)N3CCOCC3)cc1)C=CC(C)(C)O2.[Br-]	8	4	8	8	4	4	8	4	4	16	8	> 1280	
